# Measurements reported in ChEMBL document CHEMBL5104151, “Synthesis of new pyrazolo[4,3-a]phenanthridine Pim-1 inhibitors and evaluation of their cytotoxic activity towards the MOLM-13 acute myeloid leukemia cell line” (Bioorg Med Chem Lett, 2022).
# Tests used:
# MOLM-13 [1] = test: Induction of apoptosis in human MOLM-13 cells incubated for 72 hrs and assessed as presence of apoptotic nuclei; type: functional, cell-based; conditions: MOLM-13, 72 h
# [2] = target: T1, Serine/threonine-protein kinase pim-1 (Homo sapiens, UniProt P11309); test: Inhibition of full-length human Pim-1 using RSRHSSYPAG as substrate incubated in presence of [gamma33P]ATP and assessed as residual activity at 10 uM relative to control
# Target sequence in this assay (P11309 whole entry, looked up): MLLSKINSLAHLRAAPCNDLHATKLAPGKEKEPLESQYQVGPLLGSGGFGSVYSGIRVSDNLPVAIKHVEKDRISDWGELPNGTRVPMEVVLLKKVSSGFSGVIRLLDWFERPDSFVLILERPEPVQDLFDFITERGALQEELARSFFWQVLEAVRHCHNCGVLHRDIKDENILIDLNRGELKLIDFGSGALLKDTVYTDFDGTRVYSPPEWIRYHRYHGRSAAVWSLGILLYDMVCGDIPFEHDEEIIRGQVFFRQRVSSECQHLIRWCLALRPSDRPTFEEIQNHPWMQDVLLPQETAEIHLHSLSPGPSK
# [3] = target: T1, Serine/threonine-protein kinase pim-1; test: Inhibition of full-length human Pim-1 using RSRHSSYPAG as substrate incubated in presence of [gamma33P]ATP and assessed as residual activity at 1 uM relative to control
# Target sequence in this assay (P11309 whole entry, looked up): as above
# MOLM-13 [4] = test: Antiproliferative activity against human MOLM-13 cells measured after 24 hrs by WST-1 assay; type: functional, cell-based; conditions: MOLM-13, 24 h
# MOLM-13 [5] = test: Antiproliferative activity against human MOLM-13 cells measured after 72 hrs by WST-1 assay; type: functional, cell-based; conditions: MOLM-13, 72 h
# [6] = target: T1, Serine/threonine-protein kinase pim-1; test: Inhibition of full-length human Pim-1 using RSRHSSYPAG as substrate incubated in presence of [gamma33P]ATP
# Target sequence in this assay (P11309 whole entry): as the sequence (P11309 whole entry, looked up) above
# [7] = Cytotoxicity against rat NRK cells measured after 72 hrs by WST-1 assay; type: toxicity, cell-based
Structure (SMILES),EC50 (MOLM-13 [1]),Activity [2],Activity [3],EC50 (MOLM-13 [4]),EC50 (MOLM-13 [5]),IC50 [6],EC50 at 72 h [7]
COC(=O)c1cc2[nH]ncc2c2c1ncc1ccccc12,61 µM,21%,38%,50 µM,30 µM,–,–
C=Cc1n[nH]c2cc([N+](=O)[O-])c3ncc4ccccc4c3c12,4.6 µM,1.5%,5.3%,2.9 µM,1.7 µM,0.031 µM,24 µM
FC(F)(F)c1cc2[nH]ncc2c2c1ncc1ccccc12,> 250 µM,18%,43%,–,1.2 µM,–,–

# The next lines start with results.
EC50 (MOLM-13 [1]),Activity [2],Activity [3],EC50 (MOLM-13 [4]),EC50 (MOLM-13 [5]),IC50 [6],Structure (SMILES),EC50 at 72 h [7]
6.6 µM,1.4%,8.6%,3.5 µM,1.7 µM,0.05 µM,O=[N+]([O-])c1cc2[nH]nc(I)c2c2c1ncc1ccccc12,28 µM
> 250 µM,7%,23%,–,2.5 µM,0.125 µM,NC(=O)c1cc2[nH]ncc2c2c1ncc1ccccc12,–
> 250 µM,29%,77%,> 250 µM,62 µM,–,O=C(O)c1cc2[nH]ncc2c2c1ncc1ccccc12,–
3.7 µM,–,–,0.8 µM,0.2 µM,–,O=[N+]([O-])c1cc2[nH]ncc2c2c1ncc1ccccc12,> 30 µM
